{"source": "ChEMBL document CHEMBL5614443", "about": "“Hybrids of 3-Hydroxypyridin-4(1H)-ones and Long-Chain 4-Aminoquinolines as Potent Biofilm Inhibitors of Pseudomonas aeruginosa Potentiate Tobramycin and Polymyxin B Activity” (J Med Chem, 2024)", "key": {"Pseudomonas aeruginosa [1]": {"test_system": "Pseudomonas aeruginosa", "test": "Antibacterial activity against Pseudomonas aeruginosa clinical isolate 0807 assessed as inhibition of bacterial growth incubated for 24 hrs by CLSI protocol based method", "type": "functional, organism-based"}, "Pseudomonas aeruginosa [2]": {"test_system": "Pseudomonas aeruginosa", "test": "Antibiofilm activity against Pseudomonas aeruginosa clinical isolate 1167 assessed as reduction in biofilm content at 10 uM incubated for 24 hrs by crystal violet staining based analysis", "type": "functional, organism-based"}, "Pseudomonas aeruginosa [3]": {"test_system": "Pseudomonas aeruginosa", "test": "Synergistic antibacterial activity against Pseudomonas aeruginosa clinical isolate 1167 assessed as reduction in bacterial viability at 10 to 50 uM incubated for 24 hrs in presence of 1/2 MIC of polymyxin B by LB agar plate method", "type": "functional, organism-based", "conditions": "dose 10-50 µM"}, "Pseudomonas aeruginosa [4]": {"test_system": "Pseudomonas aeruginosa", "test": "Synergistic antibacterial activity against Pseudomonas aeruginosa PAO1 assessed as reduction in cell viability at 10 to 50 uM incubated for 24 hrs in the presence of 1/4 MIC of polymyxin B by LB agar plate method", "type": "functional, organism-based", "conditions": "dose 10-50 µM"}, "[5]": {"test": "Hemolytic activity in rabbit erythrocytes assessed as hemolysis rate at 200 uM incubated for 2 hrs by microplate reader analysis (reference value: 100 %)", "type": "toxicity, cell-based, Oryctolagus cuniculus, Erythrocyte", "conditions": "read-out: Activity"}, "Pseudomonas aeruginosa [6]": {"test_system": "Pseudomonas aeruginosa", "test": "Synergistic antibacterial activity against Pseudomonas aeruginosa clinical isolate 0815 assessed as reduction in bacterial viability at 10 to 50 uM incubated for 24 hrs in presence of 1/2 MIC of polymyxin B by LB agar plate method", "type": "functional, organism-based", "conditions": "dose 10-50 µM"}, "Pseudomonas aeruginosa [7]": {"test_system": "Pseudomonas aeruginosa", "test": "Inhibition of motility in Pseudomonas aeruginosa PAO1 assessed as reduction in swarming movements incubated for 16 hrs by motility assay", "type": "functional, organism-based", "conditions": "dose 1.25-50 µM"}, "Pseudomonas aeruginosa [8]": {"test_system": "Pseudomonas aeruginosa", "test": "Antibacterial activity against Pseudomonas aeruginosa clinical isolate 1031 assessed as inhibition of bacterial growth incubated for 24 hrs by CLSI protocol based method", "type": "functional, organism-based"}, "Pseudomonas aeruginosa [9]": {"test_system": "Pseudomonas aeruginosa", "test": "Antibacterial activity against Pseudomonas aeruginosa clinical isolate 1065 assessed as inhibition of bacterial growth incubated for 24 hrs by CLSI protocol based method", "type": "functional, organism-based"}, "Pseudomonas aeruginosa [10]": {"test_system": "Pseudomonas aeruginosa", "test": "Antibacterial activity against Pseudomonas aeruginosa PAO1 assessed as bacterial survival rate at 10 to 50 uM incubated for 24 hrs by LB agar plate method relative to control", "type": "functional", "conditions": "dose 10-50 µM"}, "[11]": {"test": "Inhibition of quorum sensing system in wildtype Pseudomonas aeruginosa PAO1 assessed as inhibition of rhamnolipid production incubated for 24 hrs by absorbance based microtiter plate reader analysis"}, "Pseudomonas aeruginosa [12]": {"test_system": "Pseudomonas aeruginosa", "test": "Synergistic antibacterial activity against Pseudomonas aeruginosa clinical isolate 0815 assessed as reduction in bacterial viability at 10 to 50 uM incubated for 24 hrs in presence of 1/4 MIC of tobramycin by LB agar plate method", "type": "functional, organism-based", "conditions": "dose 10-50 µM"}, "Pseudomonas aeruginosa [13]": {"test_system": "Pseudomonas aeruginosa", "test": "Antivirulence activity in Pseudomonas aeruginosa clinical isolate 1167 assessed as reduction in rhamnolipid production at 10 uM incubated for 24 hrs by absorbance based microtiter plate reader analysis", "type": "functional, organism-based"}, "Pseudomonas aeruginosa [14]": {"test_system": "Pseudomonas aeruginosa", "test": "Synergistic antibacterial activity against Pseudomonas aeruginosa PAO1 assessed as fold reduction in bacterial survival rate incubated for 24 hrs in presence of azithromycin by LB agar plate method", "type": "functional"}, "Pseudomonas aeruginosa [15]": {"test_system": "Pseudomonas aeruginosa", "test": "Antibiofilm activity against Pseudomonas aeruginosa clinical isolate 1121 assessed as reduction in biofilm content at 10 uM incubated for 24 hrs by crystal violet staining based analysis", "type": "functional, organism-based"}, "[16]": {"test": "Inhibition of quorum sensing system in wildtype Pseudomonas aeruginosa PAO1 assessed as inhibition of pyocyanin production incubated for 24 hrs by absorbance based analysis"}, "Pseudomonas aeruginosa [17]": {"test_system": "Pseudomonas aeruginosa", "test": "Antivirulence activity in Pseudomonas aeruginosa clinical isolate 0815 assessed as reduction in elastase production at 10 uM incubated for 24 hrs by elastin-congo red dye based absorbance assay", "type": "functional, organism-based"}, "Pseudomonas aeruginosa [18]": {"test_system": "Pseudomonas aeruginosa", "test": "Synergistic antibacterial activity against Pseudomonas aeruginosa clinical isolate 1121 assessed as reduction in bacterial viability at 10 to 50 uM incubated for 24 hrs in presence of 1/8 MIC of polymyxin B by LB agar plate method", "type": "functional, organism-based", "conditions": "dose 10-50 µM"}, "Pseudomonas aeruginosa [19]": {"test_system": "Pseudomonas aeruginosa", "test": "Synergistic antibacterial activity against Pseudomonas aeruginosa PAO1 assessed as fold reduction in bacterial survival rate incubated for 24 hrs in presence of ciprofloxacin by LB agar plate method", "type": "functional"}, "Pseudomonas aeruginosa [20]": {"test_system": "Pseudomonas aeruginosa", "test": "Antibacterial activity against Pseudomonas aeruginosa clinical isolate FB assessed as inhibition of bacterial growth incubated for 24 hrs by CLSI protocol based method", "type": "functional, organism-based"}, "Pseudomonas aeruginosa [21]": {"test_system": "Pseudomonas aeruginosa", "test": "Induction of Fe3+ chelating activity in Pseudomonas aeruginosa PAO1 assessed as increase in pyoverdine production by measuring fold change at 20 uM incubated for 24 hrs by fluorescence microplate reader"}, "Pseudomonas aeruginosa [22]": {"test_system": "Pseudomonas aeruginosa", "test": "Induction of Fe3+ chelating activity in Pseudomonas aeruginosa PAO1 assessed as increase in pyoverdine production by measuring fold change at 50 uM incubated for 24 hrs by fluorescence microplate reader"}, "Pseudomonas aeruginosa [23]": {"test_system": "Pseudomonas aeruginosa", "test": "Synergistic antibacterial activity against Pseudomonas aeruginosa clinical isolate 1121 assessed as reduction in bacterial viability at 10 to 50 uM incubated for 24 hrs in presence of 1/2 MIC of polymyxin B by LB agar plate method", "type": "functional, organism-based", "conditions": "dose 10-50 µM"}, "Pseudomonas aeruginosa [24]": {"test_system": "Pseudomonas aeruginosa", "test": "Synergistic antibacterial activity against Pseudomonas aeruginosa PAO1 assessed as reduction in cell viability at 10 to 50 uM incubated for 24 hrs in the presence of 1/4 MIC of tobramycin by LB agar plate method", "type": "functional, organism-based", "conditions": "dose 10-50 µM"}, "[25]": {"test": "Metal chelating activity assessed as Fe3+ chelation by measuring iron chelation constant by fluorescence competition assay"}}, "note": "The source made the active and inactive calls. The calls are words filed in the database; no cut-off is given here."}
{"smiles": "Cc1cc(=O)c(O)c(C(=O)NCCCCCCCCNc2ccnc3cc(Cl)ccc23)n1C.Cl", "values": [{"measurement": "Activity", "setting": "Pseudomonas aeruginosa [1]", "result": "inactive"}, {"measurement": "Activity", "setting": "Pseudomonas aeruginosa [2]", "result": "Active"}, {"measurement": "Activity", "setting": "Pseudomonas aeruginosa [3]", "result": "Active"}, {"measurement": "Activity", "setting": "Pseudomonas aeruginosa [4]", "result": "Active"}, {"measurement": "hemolysis at 2 h, 200 µM", "setting": "[5]", "result": "< 1.5", "unit": "%"}, {"measurement": "Activity", "setting": "Pseudomonas aeruginosa [6]", "result": "Active"}, {"measurement": "inhibition", "setting": "Pseudomonas aeruginosa [7]", "result": "Dose-Dependent Effect"}, {"measurement": "Activity", "setting": "Pseudomonas aeruginosa [8]", "result": "inactive"}, {"measurement": "Activity", "setting": "Pseudomonas aeruginosa [9]", "result": "inactive"}, {"measurement": "Survival", "setting": "Pseudomonas aeruginosa [10]", "result": "~100", "unit": "%"}, {"measurement": "IC50", "setting": "[11]", "result": 39.2, "unit": "µM"}, {"measurement": "Activity", "setting": "Pseudomonas aeruginosa [12]", "result": "Active"}, {"measurement": "Activity", "setting": "Pseudomonas aeruginosa [13]", "result": "Active"}, {"measurement": "fold change (FC)", "setting": "Pseudomonas aeruginosa [14]", "result": "<10"}, {"measurement": "Activity", "setting": "Pseudomonas aeruginosa [15]", "result": "Active"}, {"measurement": "IC50", "setting": "[16]", "result": 6.9, "unit": "µM"}, {"measurement": "Activity", "setting": "Pseudomonas aeruginosa [17]", "result": "Active"}, {"measurement": "Activity", "setting": "Pseudomonas aeruginosa [18]", "result": "Active"}, {"measurement": "fold change (FC)", "setting": "Pseudomonas aeruginosa [19]", "result": "<10"}, {"measurement": "Activity", "setting": "Pseudomonas aeruginosa [20]", "result": "inactive"}, {"measurement": "fold change (FC)", "setting": "Pseudomonas aeruginosa [21]", "result": 10}, {"measurement": "fold change (FC)", "setting": "Pseudomonas aeruginosa [22]", "result": 16}, {"measurement": "Activity", "setting": "Pseudomonas aeruginosa [23]", "result": "Active"}, {"measurement": "Activity", "setting": "Pseudomonas aeruginosa [24]", "result": "Active"}, {"measurement": "pFe3+", "setting": "[25]", "result": 20.6}]}
